Here are results for 19 molecules from patent publication US11702422B2, “Imidazopyridazines as modulators of IL-17” (Janssen Pharmaceutica NV, priority 2020, dated 2023).

In experiment [1] the target is IL-17A(FLAG-Tagged): IL-17RA(His-Tagged) (Homo sapiens, UniProt Q16552, K93Q). Nature of the experiment: IL-17A(FLAG-Tagged): IL-17RA(His-Tagged) Binding Disruption Eu-HTRF Assay. The conditions noted are these: IL-17A/IL-17RA binding disruption, simple average if tested more than once. In short, it runs like this: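 IC50 comes from a one-site competition fit of the HTRF 665/620 nm ratio. Compound dilutions (2-fold, 22 points) were held 1 h rt with FLAG-tagged IL-17A dimer, then His-tagged IL-17RA plus Eu-cryptate anti-FLAG and D2 anti-His antibodies were added for 2 h rt.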
Sequence of UniProt Q16552 (Q16552 with tags, fused parts or gaps K93Q): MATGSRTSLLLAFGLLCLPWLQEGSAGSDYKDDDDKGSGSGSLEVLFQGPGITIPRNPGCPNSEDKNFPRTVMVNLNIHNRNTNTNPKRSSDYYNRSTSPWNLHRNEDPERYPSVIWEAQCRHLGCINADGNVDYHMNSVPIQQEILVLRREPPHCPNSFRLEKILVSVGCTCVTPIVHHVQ

Experiment [2] concerns IL-17A-induced G-CSF production in human normal keratinocyte (NHK). Nature of the experiment: NHK Assay: IL-17A-induced G-CSF production in human normal keratinocytes. The conditions noted are these: 24 h, adult normal human keratinocytes, IL-17A 5 ng/mL, simple average if tested more than once. It is filed as cell-based. Summed up:
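Adult NHK, 3000-4000 cells/well; rhIL-17A + titrated cpd preincubated 1 h rt, then onto cells. Final: IL-17A 5 ng/mL, DMSO 0.2%, 5% FBS. 24 h, 37° C. G-CSF in supernatant by HTRF vs standard curve; IC50. Viability by CellTiter-Glo vs DMSO.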

Consider `Cn1nccc1C(=O)N[C@H](c1cn2ncc(C(NC(=O)CCC(F)(F)F)C3CC3)cc2n1)C1CCC(F)(F)CC1` (single isomer, unassigned) [Example 23, N—((S)-(7-((R*)-Cyclopropyl(4,4,4-trifluorobutanamido)methyl)imidazo[1,2-b]pyridazin-2-yl)(4,4-difluorocyclohexyl)methyl)-1-methyl-1H-pyrazole-5-carboxamide], for which the IC50 in experiment [1] was found to be 54 nM; in experiment [2] (Homo sapiens, Keratinocyte) it was 82 nM.

Regarding `CCOCC(NC(=O)CC1CC(F)(F)C1)c1cnn2cc([C@@H](NC(=O)c3nonc3C3CC3)C3CCC(F)(F)CC3)nc2c1` (single isomer, unassigned) [Example 526, 4-Cyclopropyl-N—((S)-(7-((S*)-1-(2-(3,3-difluorocyclobutyl)acetamido)-2-ethoxyethyl)imidazo[1,2-b]pyridazin-2-yl)(4,4-difluorocyclohexyl)methyl)-1,2,5-oxadiazole-3-carboxamide], the figures for the IC50 in experiment [1] and in experiment [2] were 320 nM and 1200 nM, respectively.

As to `O=C(CCC(F)(F)F)N[C@@H](c1cnn2cc([C@@H](NC(=O)c3cncc(OC(F)F)c3)C3CCC(F)(F)CC3)nc2c1)C1CC1` [Example 417, N—((S)-(7-((R)-Cyclopropyl(4,4,4-trifluorobutanamido)methyl)imidazo[1,2-b]pyridazin-2-yl)(4,4-difluorocyclohexyl)methyl)-5-(difluoromethoxy)nicotinamide], the IC50 in experiment [1] turned out to be 68 nM; in experiment [2] (Homo sapiens, Keratinocyte), 410 nM.

Consider `CC1(c2nocc2C(=O)N[C@H](c2cn3ncc([C@H](NC(=O)CCC(F)(F)F)C4CC4)cc3n2)C2CCC(F)(F)CC2)COC1` [Example 100, N—[(S)-[7-[(R)-Cyclopropyl-(4,4,4-trifluorobutanoylamino)methyl]imidazo[1,2-b]pyridazin-2-yl]-(4,4-difluorocyclohexyl)methyl]-3-(3-methyloxetan-3-yl)isoxazole-4-carboxamide], for which the IC50 in experiment [1] was 160 nM; in experiment [2] (Homo sapiens, Keratinocyte), 85 nM.

Consider `O=C(CCC(F)(F)F)N[C@@H](c1cnn2cc([C@@H](NC(=O)c3ccnc(C4CC4)n3)C3CCC(F)(F)CC3)nc2c1)C1CC1` [Example 216, 2-Cyclopropyl-N—((S)-(7-((R)-cyclopropyl(4,4,4-trifluorobutanamido)methyl)imidazo[1,2-b]pyridazin-2-yl)(4,4-difluorocyclohexyl)methyl)pyrimidine-4-carboxamide], for which the IC50 in experiment [1] was 1600 nM; in experiment [2] (Homo sapiens, Keratinocyte), greater than 20000 nM.

In the case of `O=C(CCC(F)(F)F)N[C@@H](c1cnn2cc([C@@H](NC(=O)c3cccnn3)C3CCC(F)(F)CC3)nc2c1)C1CC1` [Example 458, N—((S)-(7-((R)-Cyclopropyl(4,4,4-trifluorobutanamido)methyl)imidazo[1,2-b]pyridazin-2-yl)(4,4-difluorocyclohexyl)methyl)pyridazine-3-carboxamide], the IC50 in experiment [1] was 7800 nM; in experiment [2] (Homo sapiens, Keratinocyte), greater than 20000 nM.

For the molecule `O=C(CCC(F)(F)F)N[C@@H](c1cnn2cc([C@@H](NC(=O)c3nccc(C(F)(F)F)n3)C3CCC(F)(F)CC3)nc2c1)C1CC1` [Example 217, N—((S)-(7-((R)-Cyclopropyl(4,4,4-trifluorobutanamido)methyl)imidazo[1,2-b]pyridazin-2-yl)(4,4-difluorocyclohexyl)methyl)-4-(trifluoromethyl)pyrimidine-2-carboxamide], the IC50 in experiment [1] is 4600 nM; in experiment [2] (Homo sapiens, Keratinocyte), greater than 20000 nM.

Take `CC(CC(=O)N[C@@H](c1cnn2cc([C@@H](NC(=O)c3conc3OCC(F)F)C3CCC(F)(F)CC3)nc2c1)C1CC1)C(F)(F)F` (single isomer, unassigned) [Example 298, N—((S)-(7-((R)-Cyclopropyl((R*)-4,4,4-trifluoro-3-methylbutanamido)methyl)imidazo[1,2-b]pyridazin-2-yl)(4,4-difluorocyclohexyl)methyl)-3-(2,2-difluoroethoxy)isoxazole-4-carboxamide]: the IC50 was 250 nM in experiment [1] and 610 nM in experiment [2] (Homo sapiens, Keratinocyte).

On to `O=C(CC1CC(F)(F)C1)NC(c1cnn2cc([C@@H](NC(=O)c3cnnn3CCC(F)(F)F)C3CCC(F)(F)CC3)nc2c1)C1CC1` (single isomer, unassigned) [Example 72, N—((S)-(7-((S*)-Cyclopropyl(2-(3,3-difluorocyclobutyl)acetamido)methyl)imidazo[1,2-b]pyridazin-2-yl)(4,4-difluorocyclohexyl)methyl)-1-(3,3,3-trifluoropropyl)-1H-1,2,3-triazole-5-carboxamide], for which the figures for the IC50 in experiment [1] and in experiment [2] were 78 nM and 86 nM, respectively.

On to `COCC(NC(=O)CC1CC(F)(F)C1)c1cnn2cc([C@@H](NC(=O)c3nonc3C3CC3)C3CCC(F)(F)CC3)nc2c1` (single isomer, unassigned) [Example 524, 4-Cyclopropyl-N—((S)-(7-((S*)-1-(2-(3,3-difluorocyclobutyl)acetamido)-2-methoxyethyl)imidazo[1,2-b]pyridazin-2-yl)(4,4-difluorocyclohexyl)methyl)-1,2,5-oxadiazole-3-carboxamide], for which the IC50 is 380 nM in experiment [1] and 3700 nM in experiment [2].

In the case of `CC(CC(=O)N[C@@H](c1cnn2cc([C@@H](NC(=O)c3nonc3C3CC3)C3CCC(F)(F)CC3)nc2c1)C1CC1)C(F)(F)F` (single isomer, unassigned) [Example 301, 4-Cyclopropyl-N—((S)-(7-((R)-cyclopropyl((S*)-4,4,4-trifluoro-3-methylbutanamido)methyl)imidazo[1,2-b]pyridazin-2-yl)(4,4-difluorocyclohexyl)methyl)-1,2,5-oxadiazole-3-carboxamide], the IC50 in experiment [1] is 53 nM; in experiment [2] it was 56 nM.

For the molecule `CCOCC(NC(=O)CC1CC(F)(F)C1)c1cnn2cc([C@@H](NC(=O)c3ccnn3C(C)C)C3CCC(F)(F)CC3)nc2c1` (single isomer, unassigned) [Example 529, N—((S)-(7-((S*)-1-(2-(3,3-Difluorocyclobutyl)acetamido)-2-ethoxyethyl)imidazo[1,2-b]pyridazin-2-yl)(4,4-difluorocyclohexyl)methyl)-1-isopropyl-1H-pyrazole-5-carboxamide], the results for the IC50 in experiment [1] and in experiment [2] were 340 nM and 120 nM, respectively.

In the case of `[2H]C([2H])([2H])C([2H])([2H])n1nccc1C(=O)N[C@H](c1cn2ncc([C@H](NC(=O)CCC(F)(F)F)C3CC3)cc2n1)C1CCC(F)(F)CC1` [Example 233, N—((S)-(7-((R)-Cyclopropyl(4,4,4-trifluorobutanamido)methyl)imidazo[1,2-b]pyridazin-2-yl)(4,4-difluorocyclohexyl)methyl)-1-(ethyl-d5)-1H-pyrazole-5-carboxamide], the IC50 was found to be 47 nM in experiment [1] and 51 nM in experiment [2] (Homo sapiens, Keratinocyte).

As to `O=C(CCC(F)(F)F)N[C@@H](c1cnn2cc([C@@H](NC(=O)c3ncnn3CC3CC3)C3CCC(F)(F)CC3)nc2c1)C1CC1` [Example 39, N—((S)-(7-((R)-Cyclopropyl(4,4,4-trifluorobutanamido)methyl)imidazo[1,2-b]pyridazin-2-yl)(4,4-difluorocyclohexyl)methyl)-1-(cyclopropylmethyl)-1H-1,2,4-triazole-5-carboxamide], the IC50 in experiment [1] worked out at 110 nM; in experiment [2] (Homo sapiens, Keratinocyte), 430 nM.

For `Cc1nonc1C(=O)N[C@H](c1cn2ncc([C@H](NC(=O)[C@H](F)[C@@H](C)C(F)(F)F)C3CC3)cc2n1)C1CCC(F)(F)CC1` (relative stereo) [Example 352, N—((S)-(7-((R)-Cyclopropyl((2R*,3R*)-2,4,4,4-tetrafluoro-3-methylbutanamido)methyl)imidazo[1,2-b]pyridazin-2-yl)(4,4-difluorocyclohexyl)methyl)-4-methyl-1,2,5-oxadiazole-3-carboxamide], the IC50 is 120 nM in experiment [1] and 190 nM in experiment [2] (Homo sapiens, Keratinocyte).

As to `Cc1nonc1C(=O)N[C@H](c1cn2ncc([C@H](NC(=O)C(F)CC3CC3)C3CC3)cc2n1)C1CCC(F)(F)CC1` (single isomer, unassigned) [Example 345, N—((S)-(7-((R)-Cyclopropyl((S*)-3-cyclopropyl-2-fluoropropanamido)methyl)imidazo[1,2-b]pyridazin-2-yl)(4,4-difluorocyclohexyl)methyl)-4-methyl-1,2,5-oxadiazole-3-carboxamide], the IC50 in experiment [1] amounted to 180 nM; in experiment [2], 670 nM.

For `O=C(CCC(F)(F)F)NC(c1cnn2cc([C@@H](NC(=O)c3cnn(CC4CC4)n3)C3CCC(F)(F)CC3)nc2c1)C1CC1` (stereo in doubt) [Example 25, N—((S)-(7-((R*)-Cyclopropyl(4,4,4-trifluorobutanamido)methyl)imidazo[1,2-b]pyridazin-2-yl)(4,4-difluorocyclohexyl)methyl)-2-(cyclopropylmethyl)-2H-1,2,3-triazole-4-carboxamide], the IC50 in experiment [1] was found to be 71 nM; in experiment [2] (Homo sapiens, Keratinocyte), 350 nM.

Take `O=C(CCC(F)(F)F)N[C@@H](c1cnn2cc([C@@H](NC(=O)c3ccnn3C3CC3)C3CCC(F)(F)CC3)nc2c1)C1CC1` [Example 240, 1-Cyclopropyl-N—((S)-(7-((R)-cyclopropyl(4,4,4-trifluorobutanamido)methyl)imidazo[1,2-b]pyridazin-2-yl)(4,4-difluorocyclohexyl)methyl)-1H-pyrazole-5-carboxamide]: the IC50 in experiment [1] was 130 nM; in experiment [2] (Homo sapiens, Keratinocyte) it was 210 nM.

Turning to `O=C(CCC(F)(F)F)N[C@@H](c1cnn2cc([C@@H](NC(=O)c3conc3CCF)C3CCC(F)(F)CC3)nc2c1)C1CC1` [Example 99, N—[(S)-[7-[(R)-Cyclopropyl-(4,4,4-trifluorobutanoylamino)methyl]imidazo[1,2-b]pyridazin-2-yl]-(4,4-difluorocyclohexyl)methyl]-3-(2-fluoroethyl)isoxazole-4-carboxamide], the 50% inhibitory concentration (IC50) in experiment [1] worked out at 57 nM; in experiment [2] (Homo sapiens, Keratinocyte), 60 nM.
